The values that follow come from PMC6982702, “Extensive Structure Modification on Luteolin-Cinnamic Acid Conjugates Leading to BACE1 Inhibitors with Optimal Pharmacological Properties” (Molecules, 2019).

Series [1] deals with T1, BACE1 (Homo sapiens, UniProt P56817).
T1 construct: purchased PanVera Co. (Invitrogen, USA)
Kind of series: In vitro BACE1 FRET enzyme assay. It counts as biochemical. As to conditions: BACE1 FRET assay. As for the experimental part:
The BACE1 FRET assay kit was purchased from the PanVera Co. (Invitrogen, USA). The assay was carried out according to the supplied manual with modifications. […] The fluorescence intensity was measured with a TECAN infinite 200 microplate reader for 60 min at 25 °C in the dark. […] The percent inhibition (%) was obtained by the following equation: Inhibition % = (1 −SS/SC) × 100%, where SC is the slope of fluorescence change of the control (enzyme, buffer, and substrate) during 60 min, and SS is the slope of fluorescence change of the tested samples (enzyme, sample solution, and substrate) during 60 min of measurement. IC50 values were calculated from the nonlinear curve fitting of percentage inhibition against inhibitor concentration using Prism 3.0 software (GraphPad Software, San Diego, CA, USA).

A short description of another series: MTT cytotoxicity assay. It is filed as cell-based. As to conditions: human, HEK293 cells (method text: HEK293T), 24 h exposure. As for the experimental part:
It is crucial for the BACE1 inhibitors to exert their activities at sub-toxic concentration, and thus their cytotoxicity was assessed in HEK293 cells by 3-[4,5-dimethylthiazol-2-yl]-2,5-diphenyl-tetrazolium bromide (MTT) assays (Table 5). […] Unfortunately, there was no obvious relationship between the structures and their cytotoxicity.
The cytotoxicity was examined by using 3-[4,5-dimethylthiazol-2-yl]-2,5-diphenyl-tetrazolium bromide (MTT) assay. HEK293T cells were seeded with complete DMEM into 96-well plates ([…], 100 µL/well), incubated at 37 °C in a humidified atmosphere with 5% CO2 for 24 h. All the compounds were diluted with the phenol red-free DMEM at a specific concentration. After 24 h of exposure to different concentrations of compound, the supernatant was removed and then 20% (v/v) MTT (5 mg/mL) diluted with fresh culture medium was added into each well and incubated for 4 h. Cells were lysed with 100 μL dimethyl sulfoxide (DMSO) and shaken for 10 min at room temperature. The absorbance in each well was detected at a wavelength of 490 nm using a Universal Microplate Reader (ELX 800 lv, BIO-TEK Instruments, Inc., Winooski, VT, USA).
A general note: Tetrazolium dyes change colour on reduction, which living cells bring about.

The target of series [2] is T1, BACE1. Further details: method as in PMID 31557620. Particulars: previous work ref 13; cited from earlier work.

Values joined by “and” are separate entries in the source; they are usually repeats but may differ in a detail not shown here. Equal entries are not always repeated.

T1 sequence (P56817 46-501): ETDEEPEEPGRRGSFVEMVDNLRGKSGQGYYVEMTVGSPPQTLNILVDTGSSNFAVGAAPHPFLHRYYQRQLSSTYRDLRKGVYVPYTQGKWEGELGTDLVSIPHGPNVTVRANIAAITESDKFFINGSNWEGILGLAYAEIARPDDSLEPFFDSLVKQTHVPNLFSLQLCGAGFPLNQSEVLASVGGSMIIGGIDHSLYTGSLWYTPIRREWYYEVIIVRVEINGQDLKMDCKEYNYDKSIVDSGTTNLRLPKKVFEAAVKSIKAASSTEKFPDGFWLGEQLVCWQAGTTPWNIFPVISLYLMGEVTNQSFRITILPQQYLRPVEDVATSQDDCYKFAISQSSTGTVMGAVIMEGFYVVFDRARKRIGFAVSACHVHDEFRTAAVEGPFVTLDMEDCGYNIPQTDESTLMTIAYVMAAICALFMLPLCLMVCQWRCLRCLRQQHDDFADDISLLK

The IC50 is the point on the concentration scale where inhibition reaches its midpoint. Low values mean higher potency, high ones lower potency. As usually defined, the inhibition is the share of the control response that was lost under treatment. On to `O=C(/C=C/c1ccc(O)cc1)OCCOc1cc(O)c2c(=O)cc(-c3ccc(O)c(O)c3)oc2c1` [Compound 3], for which the IC50 on BACE1 [1] is 2.19 µM and 1.87 µM. At BACE1 [1] (10 μM compound, read-out: Inhibition Rate at 10 μM (%)), the inhibition at 10 µM is 64.8 ± 6%. Besides, half-maximal inhibition in the series “MTT cytotoxicity assay” (IC50 at 24 h) was put at 62.4 µM. On BACE1 [2], the “mode of BACE1 inhibition” value is on record as “non-competitive inhibitor”.
